Test results reported in patent US9688695B2, “Imidazothiadiazole and imidazopyrazine derivatives as protease activated receptor 4 (PAR4) inhibitors for treating platelet aggregation” (BRISTOL-MYERS SQUIBB COMPANY, priority 2012, dated 2017).

The compounds below were run against PAR4 (Homo sapiens (Human), UniProt Q96RI0) (assay: FLIPR assay in PAR4-expressing HEK293 cells (PAR4 antagonist activity, calcium mobilization)). Settings: H-Ala-Phe(4-F)-Pro-Gly-Trp-Leu-Val-Lys-Asn-Gly-NH2-induced calcium mobilization.
Type: cell-based
Excerpt: The FLIPR assay is an exemplary in vitro assay for measuring the activity of the PAR4 antagonists of the present invention. In this assay, intracellular calcium mobilization is induced in PAR4 expressing cells by a PAR4 agonist and calcium mobilization is monitored. See, e.g., Example A.
HEK293 cells stably expressing PAR4 were generated by a standard method of transfection of human […] cDNA expression vector or by RAGE technology from Athersys Inc. (Cleveland, Ohio) and selected based on PAR4 protein expression of mRNA expression. […] These cells express endogenous PAR1 and can elicit calcium signal upon stimulation with PAR1 agonist peptide.
Counter screens for agonist activity and PAR1 antagonist activity were also performed. Briefly, HEK293 EBNA PAR4 clone 20664.1J cells were plated 24 hrs. prior to experiment in 384 well, Poly-D-Lysine coated, black, clear bottom plates (Greiner Bio-One, Monroe, N.C.). Cells were plated at 20,000 cells/well in […] growth medium and incubated at 37° C. with 5% CO2 overnight. At time of assay, media was replaced with 40 μl 1× Hank's Buffered Saline Solution (HBSS) (with 10 mM HEPES) and 20 μl test compound also diluted in 1×HBSS buffer was added at various concentrations and 0.67% DMSO final concentration on the FDSS for agonist measurement. The cells were then incubated for 30 minutes at room temperature followed by addition of 20 μl of agonist peptide for antagonist measurement on the FDSS.
As indicated above, the FLIPR assay, an in vitro assay, measures the PAR4 antagonist activity of compounds tested as described in Example A. The PRP assay, an in vitro assay, measures the PAR4 antagonist assay of the compounds tested in the presence of plasma proteins and thrombin agonist as described in Example C.

PAR4, sequence (Q96RI0 18-385): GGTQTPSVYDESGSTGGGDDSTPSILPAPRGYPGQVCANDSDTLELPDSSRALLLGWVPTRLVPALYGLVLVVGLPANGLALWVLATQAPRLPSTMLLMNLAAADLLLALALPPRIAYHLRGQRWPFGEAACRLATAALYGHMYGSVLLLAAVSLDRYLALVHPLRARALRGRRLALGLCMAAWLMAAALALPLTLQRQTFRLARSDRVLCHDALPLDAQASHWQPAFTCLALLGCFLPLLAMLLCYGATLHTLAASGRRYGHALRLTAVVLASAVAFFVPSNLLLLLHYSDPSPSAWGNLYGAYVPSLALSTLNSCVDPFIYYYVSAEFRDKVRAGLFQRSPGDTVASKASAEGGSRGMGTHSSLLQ

COc1cc(OCc2csc(N(C)CCC#N)n2)c2cc(-c3cn4nc(OC)sc4n3)oc2c1 [Example 106, 3-((4-(((6-Methoxy-2-(2-methoxyimidazo[2,1-b][1,3,4]thiadiazol-6-yl)benzofuran-4-yl)oxy)methyl)thiazol-2-yl)(methyl)amino)propanenitrile] and CCC(O)(CC)c1nc(COc2cc(OC)cc3oc(-c4cn5nc(OC)sc5n4)cc23)cs1 [Example 140] are within 1.5-fold of each other in EC50: 0.98 nM for the first, 0.67 nM for the second.

Compared with COC[C@@H]1CCCN1c1nc(COc2cc(OC)cc3oc(-c4cn5nc(OC)sc5n4)cc23)cs1 [Example 107, (S)-2-Methoxy-6-(6-methoxy-4-((2-(2-(methoxymethyl)pyrrolidin-1-yl)thiazol-4-yl)methoxy)benzofuran-2-yl)imidazo[2,1-b][1,3,4]thiadiazole], COc1cc(OCc2csc(C3CCN(S(C)(=O)=O)CC3)n2)c2cc(-c3cn4nc(OC)sc4n3)oc2c1 [Example 112, 2-Methoxy-6-(6-methoxy-4-((2-(1-(methylsulfonyl)piperidin-4-yl)thiazol-4-yl)methoxy)benzofuran-2-yl)imidazo[2,1-b][1,3,4]thiadiazole] is 3.5-fold lower in EC50: 1.3 nM for the first, 0.37 nM for the second.

Going from COc1cc(OCc2csc(Nc3ccc(Br)cc3C)n2)c2cc(-c3cn4nc(OC)sc4n3)oc2c1 [Example 108, N-(4-Bromo-2-methylphenyl)-4-(((6-methoxy-2-(2-methoxyimidazo[2,1-b][1,3,4]thiadiazol-6-yl)benzofuran-4-yl)oxy)methyl)thiazol-2-amine] to COc1cc(OCc2csc(-c3ccno3)n2)c2cc(-c3cn4nc(OC)sc4n3)oc2c1 [Example 116, 5-(4-(((6-Methoxy-2-(2-methoxyimidazo[2,1-b][1,3,4]thiadiazol-6-yl)benzofuran-4-yl)oxy)methyl)thiazol-2-yl)isoxazole], the EC50 falls from 1.2 nM to 0.32 nM (3.8-fold). The second is the more potent here.

COc1cc(OCc2csc(C3CCN(C(=O)OC(C)(C)C)CC3)n2)c2cc(-c3cn4nc(OC)sc4n3)oc2c1 [Example 109, tert-Butyl 4-(4-(((6-methoxy-2-(2-methoxyimidazo[2,1-b][1,3,4]thiadiazol-6-yl)benzofuran-4-yl)oxy)methyl)thiazol-2-yl)piperidine-1-carboxylate] and COc1cc(OCc2csc(C3(O)CCN(C(=O)OC(C)(C)C)CC3)n2)c2cc(-c3cn4nc(OC)sc4n3)oc2c1 [Example 129, tert-Butyl 4-hydroxy-4-(4-(((6-methoxy-2-(2-methoxyimidazo[2,1-b][1,3,4]thiadiazol-6-yl)benzofuran-4-yl)oxy)methyl)thiazol-2-yl)piperidine-1-carboxylate] are within 1.5-fold of each other in EC50: 0.69 nM for the first, 0.96 nM for the second.

Compared with COc1cc(OCc2csc(C3CCN(C(=O)c4ccccc4)CC3)n2)c2cc(-c3cn4nc(OC)sc4n3)oc2c1 [Example 110, (4-(4-(((6-Methoxy-2-(2-methoxyimidazo[2,1-b][1,3,4]thiadiazol-6-yl)benzofuran-4-yl)oxy)methyl)thiazol-2-yl)piperidin-1-yl)(phenyl)methanone], COc1cc(OCc2csc(C3CCN(S(=O)(=O)c4ccccc4)CC3)n2)c2cc(-c3cn4nc(OC)sc4n3)oc2c1 [Example 113, 2-Methoxy-6-(6-methoxy-4-((2-(1-(phenylsulfonyl)piperidin-4-yl)thiazol-4-yl)methoxy)benzofuran-2-yl)imidazo[2,1-b][1,3,4]thiadiazole] is 1.8-fold lower in EC50: 0.78 nM for the first, 0.43 nM for the second.

Compared with COc1cc(OCc2csc(C3CCN(S(=O)(=O)C(C)C)CC3)n2)c2cc(-c3cn4nc(OC)sc4n3)oc2c1 [Example 111, 6-(4-((2-(1-(Isopropylsulfonyl)piperidin-4-yl)thiazol-4-yl)methoxy)-6-methoxybenzofuran-2-yl)-2-methoxyimidazo[2,1-b][1,3,4]thiadiazole], COc1cc(OCc2csc(C3CCN(S(=O)(=O)C(F)(F)F)CC3)n2)c2cc(-c3cn4nc(OC)sc4n3)oc2c1 [Example 114, 2-Methoxy-6-(6-methoxy-4-((2-(1-((trifluoromethyl)sulfonyl)piperidin-4-yl)thiazol-4-yl)methoxy)benzofuran-2-yl)imidazo[2,1-b][1,3,4]thiadiazole] is 1.8-fold lower in EC50: 0.86 nM for the first, 0.49 nM for the second. The second is the more potent here.

COc1cc(OCc2csc(-c3cnco3)n2)c2cc(-c3cn4nc(OC)sc4n3)oc2c1 [Example 117, 5-(4-(((6-methoxy-2-(2-methoxyimidazo[2,1-b][1,3,4]thiadiazol-6-yl)benzofuran-4-yl)oxy)methyl)thiazol-2-yl)oxazole] and COc1cc(OCc2csc(C3(O)CCOC3)n2)c2cc(-c3cn4nc(OC)sc4n3)oc2c1 (stereo not drawn) [Example 123, 3-(4-(((6-Methoxy-2-(2-methoxyimidazo[2,1-b][1,3,4]thiadiazol-6-yl)benzofuran-4-yl)oxy)methyl)thiazol-2-yl)tetrahydrofuran-3-ol] are within 1.5-fold of each other in EC50: 0.43 nM for the first, 0.5 nM for the second.

First: COc1cc(OCc2csc(C3(F)CCOCC3)n2)c2cc(-c3cn4nc(OC)sc4n3)oc2c1 [Example 119, 6-(4-((2-(4-Fluorotetrahydro-2H-pyran-4-yl)thiazol-4-yl)methoxy)-6-methoxybenzofuran-2-yl)-2-methoxyimidazo[2,1-b][1,3,4]thiadiazole]
Second: COc1cc(OCc2csc(C3(OC)CCOCC3)n2)c2cc(-c3cn4nc(OC)sc4n3)oc2c1 [Example 120, 2-Methoxy-6-(6-methoxy-4-((2-(4-methoxytetrahydro-2H-pyran-4-yl)thiazol-4-yl)methoxy)benzofuran-2-yl)imidazo[2,1-b][1,3,4]thiadiazole]
The EC50 of the first is 1.6-fold higher: 0.72 nM for the first, 0.45 nM for the second. The second is the more potent here.

Compared with COc1cc(OCc2csc(C3(F)CC(C)OC(C)C3)n2)c2cc(-c3cn4nc(OC)sc4n3)oc2c1 (stereo not drawn) [Example 122, 6-(4-((2-(4-Fluoro-2,6-dimethyltetrahydro-2H-pyran-4-yl)thiazol-4-yl)methoxy)-6-methoxybenzofuran-2-yl)-2-methoxy-imidazo[2,1-b][1,3,4]thiadiazole], COc1cc(OCc2csc(C3(F)CCCCC3)n2)c2cc(-c3cn4nc(OC)sc4n3)oc2c1 [Example 134, 6-(4-((2-(1-Fluorocyclohexyl)thiazol-4-yl)methoxy)-6-methoxybenzofuran-2-yl)-2-methoxyimidazo[2,1-b][1,3,4]thiadiazole] is 1.7-fold higher in EC50: 0.72 nM for the first, 1.2 nM for the second. The first is the more potent here.

First: COc1cc(OCc2nc(C3(O)CCOCC3)sc2C)c2cc(-c3cn4nc(OC)sc4n3)oc2c1 [Example 124, 4-(4-(((6-Methoxy-2-(2-methoxyimidazo[2,1-b][1,3,4]thiadiazol-6-yl)benzofuran-4-yl)oxy)methyl)-5-methylthiazol-2-yl)tetrahydro-2H-pyran-4-ol]
Second: COc1cc(OCc2nc(C3(F)CCOCC3)sc2C(F)(F)F)c2cc(-c3cn4nc(OC)sc4n3)oc2c1 [Example 132, 6-(4-((2-(4-Fluorotetrahydro-2H-pyran-4-yl)-5-(trifluoromethyl)thiazol-4-yl)methoxy)-6-methoxybenzofuran-2-yl)-2-methoxyimidazo[2,1-b][1,3,4]thiadiazole]
The EC50 of the first is 6.6-fold lower: 0.29 nM for the first, 1.9 nM for the second.

COc1cc(OCc2csc(C3(O)CCC(=O)CC3)n2)c2cc(-c3cn4nc(OC)sc4n3)oc2c1 [Example 128, 4-Hydroxy-4-(4-(((6-methoxy-2-(2-methoxyimidazo[2,1-b][1,3,4]thiadiazol-6-yl)benzofuran-4-yl)oxy)methyl)thiazol-2-yl)cyclohexan-one] and COc1cc(OCc2csc(C3(O)CCCCC3)n2)c2cc(-c3cn4nc(OC)sc4n3)oc2c1 [Example 133, 1-(4-(((6-Methoxy-2-(2-methoxyimidazo[2,1-b][1,3,4]thiadiazol-6-yl)benzofuran-4-yl)oxy)methyl)thiazol-2-yl)cyclohexanol] are within 1.5-fold of each other in EC50: 0.35 nM for the first, 0.37 nM for the second.

Going from COc1cc(OCc2csc(C3(O)CCN(C(=O)c4ccccc4)CC3)n2)c2cc(-c3cn4nc(OC)sc4n3)oc2c1 [Example 130, (4-Hydroxy-4-(4-(((6-methoxy-2-(2-methoxyimidazo[2,1-b][1,3,4]thiadiazol-6-yl)benzofuran-4-yl)oxy)methyl)thiazol-2-yl)piperidin-1-yl)(phenyl)methanone] to COc1cc(OCc2csc(C3(O)CCC(F)(F)CC3)n2)c2cc(-c3cn4nc(OC)sc4n3)oc2c1 [Example 135, 4,4-Difluoro-1-(4-(((6-methoxy-2-(2-methoxyimidazo[2,1-b][1,3,4]thiadiazol-6-yl)benzofuran-4-yl)oxy)methyl)thiazol-2-yl)cyclohexanol], the EC50 rises from 0.4 nM to 0.79 nM (2-fold).

COc1cc(OCc2csc(C3(F)CCC(F)(F)CC3)n2)c2cc(-c3cn4nc(OC)sc4n3)oc2c1 [Example 136, 2-Methoxy-6-(6-methoxy-4-((2-(1,4,4-trifluorocyclohexyl)thiazol-4-yl)methoxy)benzofuran-2-yl)imidazo[2,1-b][1,3,4]thiadiazole] and CCC(O)(c1nc(COc2cc(OC)cc3oc(-c4cn5nc(OC)sc5n4)cc23)cs1)C(F)(F)F (stereo not drawn) [Example 138] are within 1.5-fold of each other in EC50: 1.2 nM for the first, 0.82 nM for the second.

Same assay, conditions: H-Ala-Phe(4-F)-[…]NH2-induced calcium mobilization

In the case of COc1cc(OCc2csc(C3=CCC4(CC3)OCCO4)n2)c2cc(-c3cn4nc(OC)sc4n3)oc2c1 [Example 127, 6-(4-((2-(1,4-Dioxaspiro-[4.5]dec-7-en-8-yl)thiazol-4-yl)methoxy)-6-methoxybenzofuran-2-yl)-2-methoxyimidazo[2,1-b][1,3,4]thiadiazole], the EC50 is reported as 1.6 nM.
